Experimental data taken from US5100663A, “Tyr-Gly compositions useful in increasing immune response” (priority 1990, dated 1992).
Where two headings read alike, the source gives them in different places. Non-standard residues stand in square brackets, D forms with d. Residues, ends and D or L forms follow the SMILES beside them.

Columns and labels:
[1] = tested on: cell-mediated immune system response; test: Amplifier (immunological) activity of HPLC fractions and their constituents; parameters: species or system human; details: for immunological activity as assayed by DH test: moieties in effluents of Example 5 process; for amplifier / immunological activity: HPLC fractions of human leukocyte dialysate and constituents
Text: Absorbance was monitored at […], 0.1 Absorbance Units=Full Scale. […] The first peak was lower than the second and third, in terms of absorbance units, and is believed to be an artifact of the system associated with the ethanol solvent or due to elution of salts. The second and third peaks varied in relative height from preparation to preparation.
Other moieties found present in effluents of this process were Gly-Gly, Ser-Phe, and Ala, along with possibly other amino acid residues as well.

[2] = tested on: IL-2 receptors on T-helper cells; test: T-helper cell IL-2 receptor expression assay; format: cell-based, human
[3] = tested on: gamma-interferon production in normal cells; test: Antigen-induced production of gamma interferon; format: cell-based, human
Text: The LIF assay is described in Gottlieb et al., Modulation of Human T Cell Production, J. Immunology 132: 256-260 (Jan. 1984), at p. 257. Protocols for the other assays are believed to be known to those skilled in this art. A convenient reference for the gamma-interferon assay in Sinha et al., Bio/Technology 6:810 (1988), at pp. 814-15.
Preparations of 0.1 Lf /ml and 1.0 Lf /ml TT were used to determine the effect of Beta-1.11 (endogenous YG-material) on production of gamma-interferon in normal cells. As before, serial dilutions of Beta-1.11 were prepared from 46.5 pM to 91 fM.

[4] = tested on: DH response to tetanus toxoid (TT); parameters: species or system human; details: in vivo
[5] = tested on: L1210 leukemia cells in BDF1 strain mice; test: Mouse L1210 leukemia survival test; format: in vivo; details: 2 fg intradermally every third day (about 100 fg/kg); 5 mice per group; present-tense example
Protocol: Ten BDF1 strain mice are divided into two groups of 5. Each mouse is injected with 100 L1210 leukemia cells from ascitic fluid of DBA/2 host mice.
(§1) The mice in Group I (control) are thereafter given injections of 0.1 ml sterile saline every third day. The mice in Group II are thereafter given intradermal injections of 2 fg of synthetic YG of Example 20 in 0.1 ml of sterile saline, every third day. The mice weigh approximately 20 g each, so that 2 fg represents approximately 100 fg/kg of bodyweight.
as §1, with “synthetic Tyr-D-Ala-Gly” for “synthetic YG”, “Example 25” for “Example 20”, “mice were” for “mice weigh”

Compound: C[C@H](N)C(=O)O [Ala]
- immunological activity as assayed by DH test [1]: None of these other moieties appeared to possess immunological activity

Compound: C[C@@H](NC(=O)[C@@H](N)Cc1ccc(O)cc1)C(=O)NCC(=O)O [Tyr-D-Ala-Gly, L-tyrosyl-D-alanyl-L-glycine] (H-Tyr-[dA]-Gly-OH)
- concentration giving the highest figure for high density of receptors [2]: approximately 2 fM
- effect relative to endogenous material [2]: approximately an order of magnitude less in effect than endogenous YGG-material
- increase of IL-2 receptors (high density maximum), factor [2]: approximately 1.5
- concentration at maximum gamma-interferon production ([3]; 1.0 Lf/ml TT): approximately 20 fM
- potency relative to endogenous YG-material ([3]; gamma interferon assay, human sources not identical): an order of magnitude more potent
- amplifier effect in DH assay [4]: slightly better than that observed in Table 1 of Gottlieb U.S. Pat. No. 4,699,898
- skin reaction without TT [4]: No reaction is observed
- mean survival longer than control group [5]: approximately 2.8 days

Compound: N[C@@H](Cc1ccc(O)cc1)C(=O)NCC(=O)NCC(=O)O [YGG, L-tyrosylglycylglycine] (H-Tyr-Gly-Gly-OH)
- potency relative to corresponding endogenous amplifier materials Beta-1.11 and Beta-1.12 [4]: an order of magnitude less potent

Compound: N[C@@H](Cc1ccccc1)C(=O)O [phenylalanine]
- amplifier / immunological activity [1]: found to lack intrinsic amplifier activity

Compound: N[C@@H](Cc1ccc(O)cc1)C(=O)NCC(=O)O [synthetic YG, L-tyrosylglycine]
- increase of IL-2 receptors (high density maximum), factor [2]: approximately 1.6
- concentration giving the highest figure for high density of receptors ([2]; TT + serial dilutions): approximately 22 fM
- potency relative to corresponding endogenous amplifier materials Beta-1.11 and Beta-1.12 [4]: an order of magnitude less potent
- mean survival longer than control group [5]: approximately 2.4 days

Compound: Gly-Gly
- amplifier / immunological activity [1]: found to lack intrinsic amplifier activity
- immunological activity as assayed by DH test [1]: None of these other moieties appeared to possess immunological activity

Compound: Tyr-Gly-Gly-Phe-Ile (YGGFI; printed: Tyr-Gly-Gly-Phe-Ile)
- immunological activity in DH assay [4]: Significant immunological activity is not observed
- molar concentration giving activity comparable to YG, relative to YG in Example 21 [4]: 8-10 orders of magnitude
